The source made the active and inactive calls. The calls are words filed in the database; no cut-off is given here.
Organism: Homo sapiens
Test: Antiproliferative activity against log phase culture of human fibroblasts assessed as growth inhibition after 4 days
Assay type: functional
Settings: Fibroblast

| Compound | growth inhibition (GI) |
| --- | --- |
| CCNCCCCNCCCCNCCCCNC/C=C(/CS)CNCCCCNCCCCNCCCCNCC | Active |
| CNCC(CS)CNC | Active |
| CCNCCCCNCCCCNCCCCNCCCCNC/C=C(/CS)CNCCCCNCCCCNCCCCNCCCCNCC | Active |
| CCNCCCCNC/C=C(/CS)CNCCCCNCC | Active |
| CCNCCCCNCCCCNC/C=C(/CS)CNCCCCNCCCCNCC | Active |

The compounds below were run on Rattus norvegicus (assay: Protection against 17.33 Gy radiation induced-dermatitis in rat compound administered topically 4 times in 2 hrs prior irradiation measured after 13 days). Settings: not given.
Assay type: functional, organism-based

| Compound | Activity |
| --- | --- |
| CNCC(CS)CNC | Active |
